# According to patent EP0326331B1, “Substituted quinolines and cinnolines” (Dow AgroSciences LLC, priority 1988, dated 1989):
# Where two headings read alike, the source gives them in different places.
# Key:
# Format in all cases: in vivo
# [1] = tested on: Erysiphe graminis tritici (powdery mildew); test: Test 1 greenhouse foliar spray screen, powdery mildew on wheat; conditions: disease control rating, foliar spray on wheat, 400 ppm (+++ at 100 ppm)
# [2] = tested on: Pyricularia oryzae (rice blast); test: whole plant or invertebrate; conditions: disease control rating, foliar spray on rice, 400 ppm (+++ at 100 ppm)
# [3] = tested on: Puccinia recondita tritici (leaf rust); test: Test 1 greenhouse foliar spray screen, leaf rust on wheat; conditions: disease control rating, foliar spray on wheat, 400 ppm (+++ at 100 ppm)
# [4] = tested on: Botrytis cinerea (gray mold); test: Test 1 greenhouse foliar spray screen, gray mold on grape berries; conditions: disease control rating, spray on grape berries, 400 ppm (+++ at 100 ppm)
# [5] = tested on: Pseudoperonospora cubensis (downy mildew); test: Test 1 greenhouse foliar spray screen, downy mildew on squash; conditions: disease control rating, foliar spray on squash, 400 ppm (+++ at 100 ppm)
# [6] = tested on: Venturia inaequalis (apple scab); test: Test 1 greenhouse foliar spray screen, apple scab on apple seedling; conditions: disease control rating, foliar spray on apple seedling, 400 ppm (+++ at 100 ppm)
# [7] = tested on: Septoria tritici (leaf blotch); test: Test 1 greenhouse foliar spray screen, leaf blotch on wheat; conditions: disease control rating, foliar spray on wheat, 400 ppm (+++ at 100 ppm)
# [8] = tested on: southern armyworm (Spodopetra eridania Cramer); test: Mite/insect screen, SAW; conditions: Spodoptera eridania, percent mortality, read-out: SAW RESULTS %
# Outline: (§1)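 Percent mortality was scored after standard exposure periods, following spraying of leaves to runoff (both surfaces, 10 psi, 1 h drying) with water dilutions of compound in emulsifier-containing acetone/alcohol (50:50). Armyworms received excised treated leaves in dishes.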
# [9] = tested on: Twospotted spider mites (Tetranychus urticae Koch); test: Mite/insect screen, SM; conditions: Tetranychus urticae, percent mortality, read-out: SM RESULTS %
# Outline: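 Read-out: percent mortality after standard exposure periods. Test solutions were water dilutions of compound dissolved in acetone/alcohol (50:50) with emulsifier blends; leaves were sprayed to runoff on both surfaces and air-dried for one hour before exposure.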
# [10] = tested on: melon aphids (Aphis gossypii Glover); test: Mite/insect screen, MA; conditions: Aphis gossypii, percent mortality, read-out: MA RESULTS %
# Outline: as §1
# corn rootworm = test: Mite/insect screen, CRW; conditions: percent mortality, read-out: CRW RESULTS %
# Outline: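 Corn rootworm mortality (%) was evaluated following standard exposure times. Test material was emulsified by dissolution in acetone/alcohol (1:1) containing sulfonate/nonionic emulsifier blends TOXIMUL R (23 g/L) and TOXIMUL S (13 g/L), and water-diluted to the indicated doses.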
# [11] = foliar, rate 200 ppm, foliar spray on squash
Structure (SMILES),POWD MDEW [1],RICE BLAST [2],LEAF RUST [3],GRAY MOLD [4],DOWN MDEW [5],APPL SCAB [6],LEAF BLOT [7],"mortality at 200 ppm ([8]; SAW, SM & MA RATE 200 PPM) [%]","mortality at 200 ppm ([9]; SAW, SM & MA RATE 200 PPM) [%]","mortality at 200 ppm ([10]; SAW, SM & MA RATE 200 PPM) [%]",mortality at 12 ppm (corn rootworm; CRW RATE 12.00 PPM) [%],"mortality at 200 ppm [8, 11] [%]","mortality at 200 ppm [9, 11] [%]","mortality at 200 ppm [10, 11] [%]",mortality at 12 ppm (corn rootworm; CRW rate 12.00 ppm) [%]
"CC(Cc1ccccc1)Nc1ccnc2ccccc12 (centres unmarked) [Example 24, N-(1-methyl-2-phenylethyl)-4-quinolinamine]",+ (20-89% control at 400 ppm),+ (20-89% control at 400 ppm),+ (20-89% control at 400 ppm),- (0-19% control at 400 ppm),+++ (90-100% control at 100 ppm),- (0-19% control at 400 ppm),- (0-19% control at 400 ppm),0,0,0,0,–,–,–,–
"Cc1cc(NCCc2ccccc2)c2ccccc2n1 [Example 6, 2-methyl-N-(2-phenylethyl)-4-quinolinamine]",++ (90-100% control at 400 ppm),+ (20-89% control at 400 ppm),+ (20-89% control at 400 ppm),+ (20-89% control at 400 ppm),++ (90-100% control at 400 ppm),- (0-19% control at 400 ppm),- (0-19% control at 400 ppm),0,0,0,0,–,–,–,–
"Brc1ccc(CCNc2ccnc3ccccc23)cc1 [Example 18, N-[2-(4-bromophenyl)ethyl]-4-quinolinamine]",+ (20-89% control at 400 ppm),++ (90-100% control at 400 ppm),++ (90-100% control at 400 ppm),+ (20-89% control at 400 ppm),++ (90-100% control at 400 ppm),- (0-19% control at 400 ppm),- (0-19% control at 400 ppm),0,0,0,0,–,–,–,–
"Clc1ccc(CCNc2ccnc3ccccc23)cc1 [Example 20, N-[2-(4-chlorophenyl)ethyl]-4-quinolinamine]",+ (20-89% control at 400 ppm),+ (20-89% control at 400 ppm),+ (20-89% control at 400 ppm),- (0-19% control at 400 ppm),+++ (90-100% control at 100 ppm),- (0-19% control at 400 ppm),- (0-19% control at 400 ppm),0,0,0,0,–,–,–,–
"CCN(CCc1ccccc1)c1ccnc2ccccc12 [Example 4, N-ethyl-N-(2-phenylethyl)-4-quinolinamine]",+ (20-89% control at 400 ppm),+ (20-89% control at 400 ppm),++ (90-100% control at 400 ppm),- (0-19% control at 400 ppm),++ (90-100% control at 400 ppm),- (0-19% control at 400 ppm),- (0-19% control at 400 ppm),0,0,0,0,–,–,–,–
"c1ccc(CCNc2cc(NCCc3ccccc3)c3ccccc3n2)cc1 [Example 181, N,N'-bis(2-phenylethyl)-2,4-quinolinediamine]",+ (20-89% control at 400 ppm),+ (20-89% control at 400 ppm),+ (20-89% control at 400 ppm),- (0-19% control at 400 ppm),+++ (90-100% control at 100 ppm),- (0-19% control at 400 ppm),- (0-19% control at 400 ppm),–,–,–,–,0,0,0,0
"Clc1cc(NCCc2ccccc2)c2ccccc2n1 [Example 25, 2-chloro-N-(2-phenylethyl)-4-quinolinamine]",+ (20-89% control at 400 ppm),+ (20-89% control at 400 ppm),++ (90-100% control at 400 ppm),- (0-19% control at 400 ppm),+++ (90-100% control at 100 ppm),- (0-19% control at 400 ppm),- (0-19% control at 400 ppm),0,0,0,0,–,–,–,–
"Cc1ccc2c(NCCc3ccccc3)ccnc2c1C [Example 32, 7,8-dimethyl-N-(2-phenylethyl)-4-quinolinamine]",+ (20-89% control at 400 ppm),+ (20-89% control at 400 ppm),- (0-19% control at 400 ppm),- (0-19% control at 400 ppm),+++ (90-100% control at 100 ppm),- (0-19% control at 400 ppm),- (0-19% control at 400 ppm),0,0,0,0,–,–,–,–
"COc1ccc2nccc(NCCc3ccccc3)c2c1 [Example 1, 6-methoxy-N-(2-phenylethyl)-4-quinolineamine]",+ (20-89% control at 400 ppm),+ (20-89% control at 400 ppm),+ (20-89% control at 400 ppm),+ (20-89% control at 400 ppm),++ (90-100% control at 400 ppm),- (0-19% control at 400 ppm),- (0-19% control at 400 ppm),0,0,0,0,–,–,–,–
"Clc1ccc2c(NCCc3ccccc3)ccnc2c1 [Example 31, 7-chloro-N-(2-phenylethyl)-4-quinolinamine]",++ (90-100% control at 400 ppm),+ (20-89% control at 400 ppm),+ (20-89% control at 400 ppm),- (0-19% control at 400 ppm),+++ (90-100% control at 100 ppm),- (0-19% control at 400 ppm),- (0-19% control at 400 ppm),0,0,0,0,–,–,–,–
"FC(F)(F)c1ccc2c(NCCc3ccccc3)ccnc2c1 [Example 17, N-(2-phenylethyl)-7-(trifluoromethyl)-4-quinolinamine]",++ (90-100% control at 400 ppm),+ (20-89% control at 400 ppm),++ (90-100% control at 400 ppm),- (0-19% control at 400 ppm),++ (90-100% control at 400 ppm),- (0-19% control at 400 ppm),- (0-19% control at 400 ppm),0,0,0,0,–,–,–,–
"Cc1cccc2c(NCCc3ccccc3)ccnc12 [Example 27, 8-methyl-N-(2-phenylethyl)-4-quinolinamine]",+ (20-89% control at 400 ppm),++ (90-100% control at 400 ppm),+ (20-89% control at 400 ppm),- (0-19% control at 400 ppm),+++ (90-100% control at 100 ppm),- (0-19% control at 400 ppm),- (0-19% control at 400 ppm),0,0,0,0,–,–,–,–
"c1ccc(C(CNc2ccnc3ccccc23)c2ccccc2)cc1 [Example 23, N-(2,2-diphenylethyl)-4-quinolinamine]",+ (20-89% control at 400 ppm),+ (20-89% control at 400 ppm),+ (20-89% control at 400 ppm),- (0-19% control at 400 ppm),+++ (90-100% control at 100 ppm),- (0-19% control at 400 ppm),- (0-19% control at 400 ppm),0,0,0,0,–,–,–,–
